Assay results from PubChem BioAssay AID489026 (Sanford-Burnham Center for Chemical Genomics, 2010).
Calls of active or inactive are those of the source. How the calls were made is not given here.

Test system: HEK-293T cytotoxicity, luminescence viability
Test: cytotoxicity in HEK-293T cells, dose response, cytotoxicity control, luminescence, T-cell screen hits (AID 489026)

Compound | IC50
C[C@@H]1O[C@@H](O[C@H]2C[C@@H](O)[C@]3(CO)[C@@H]4C(CC[C@]3(O)C2)[C@@]2(O)CC[C@H](C3COC(=O)C3)[C@@]2(C)C[C@H]4O)[C@H](O)[C@H](O)[C@H]1O (some centres not stated) | > 80 µM (inactive)
C=C(C=O)C[C@@H]1C[C@H](O)C2OC3C[C@]4(C)OC5/C=C\CC6OC7C(CC=CCC6OC5CCCC4OC3CC2O1)OC1CC2OC3CC(=O)OC3C[C@@H](C)C[C@@]2(C)OC1C[C@@H]7C (some centres not stated) | 39.8 µM (inactive)
